In EP4417607A1, “HETEROCYCLIC COMPOUND AS SOS1 INHIBITOR AND USES THEREOF” (Nanjing Zaiming Pharmaceutical Co., Ltd., priority 2021, dated 2023) one finds IC50 data, which are given here for 5 compounds.

Molecules are shown by their SMILES.

The target in the test is T1, KRAS G12D::SOS1 binding (Homo sapiens, UniProt Q07889).
T1 construct: purchased Cisbio 63ADK000CB21PEH
T1 sequence (Q07889 1-1333): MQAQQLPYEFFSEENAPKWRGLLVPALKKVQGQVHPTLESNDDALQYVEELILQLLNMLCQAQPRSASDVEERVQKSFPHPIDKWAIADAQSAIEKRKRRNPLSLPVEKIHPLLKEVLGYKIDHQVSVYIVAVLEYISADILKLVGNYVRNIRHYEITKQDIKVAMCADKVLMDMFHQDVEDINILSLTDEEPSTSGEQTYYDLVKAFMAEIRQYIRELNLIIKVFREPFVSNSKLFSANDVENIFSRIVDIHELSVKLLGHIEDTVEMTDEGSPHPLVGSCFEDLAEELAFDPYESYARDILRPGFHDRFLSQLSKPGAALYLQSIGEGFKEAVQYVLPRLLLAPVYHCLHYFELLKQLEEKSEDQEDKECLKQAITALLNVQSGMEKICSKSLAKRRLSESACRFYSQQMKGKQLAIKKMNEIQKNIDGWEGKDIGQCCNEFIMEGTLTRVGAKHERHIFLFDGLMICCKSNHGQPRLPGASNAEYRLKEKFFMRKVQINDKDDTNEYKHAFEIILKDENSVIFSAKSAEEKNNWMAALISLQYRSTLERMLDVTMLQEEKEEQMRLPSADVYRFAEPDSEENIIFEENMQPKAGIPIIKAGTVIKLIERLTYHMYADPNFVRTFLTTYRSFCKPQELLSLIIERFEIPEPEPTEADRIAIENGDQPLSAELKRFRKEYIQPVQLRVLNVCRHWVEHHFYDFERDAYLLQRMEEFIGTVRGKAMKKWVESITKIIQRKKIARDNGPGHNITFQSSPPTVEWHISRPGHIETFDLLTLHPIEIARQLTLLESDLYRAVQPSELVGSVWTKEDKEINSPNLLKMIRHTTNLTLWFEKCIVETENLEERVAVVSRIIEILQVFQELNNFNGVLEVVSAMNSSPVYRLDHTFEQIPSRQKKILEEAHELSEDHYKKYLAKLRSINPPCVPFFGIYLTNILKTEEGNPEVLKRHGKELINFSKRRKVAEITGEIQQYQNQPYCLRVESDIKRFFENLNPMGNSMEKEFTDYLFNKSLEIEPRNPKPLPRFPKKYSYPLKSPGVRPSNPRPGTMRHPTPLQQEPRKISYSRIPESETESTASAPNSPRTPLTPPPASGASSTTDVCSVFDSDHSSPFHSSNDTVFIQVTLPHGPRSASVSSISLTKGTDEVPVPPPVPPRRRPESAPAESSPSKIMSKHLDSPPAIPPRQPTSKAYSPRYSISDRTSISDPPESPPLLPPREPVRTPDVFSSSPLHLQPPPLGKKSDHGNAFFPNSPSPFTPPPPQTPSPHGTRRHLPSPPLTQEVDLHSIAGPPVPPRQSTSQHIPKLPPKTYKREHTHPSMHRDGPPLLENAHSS
Nature of the test: KRAS G12D::SOS1 binding inhibition (KRAS-G12D/SOS1 binding assay kit, Cisbio). The note with it: GTP 10 µM. How it is done: The inhibitory effect of the compounds of the present invention on KRAS G12D:: SOS 1 binding was assessed using KRAS-G12D/SOS1 BINDING ASSAY KITS (Cisbio, Cat. No. 63ADK000CB21PEH).
The test compound (10 mM stock solution) was diluted […] to 0.1 mM with 100% DMSO and diluted at a ratio of 1:3 in a 384-well dilution plate for 11 concentrations. 0.1 µL of the gradiently-diluted compound solution was transferred to a 384-well plate using Echo. 2 replicate wells were set for each compound. The solution was centrifuged at 1000 rpm/min for 1 min. 5 µL of 4X KRAS G12D (final concentration 1X) and a GTP solution (final concentration 10 µM, sigma, Cat. No. V900868) were transferred to the 384-well reaction plate. The mixture was centrifuged at 1000 rpm/min for 1 min and incubated at 25 °C for 15 min. 5 µL of a 4X SOS1 solution (final concentration 1X) was transferred to the 384-well reaction plate. The solution was centrifuged at 1000 rpm/min for 1 min and incubated at 25 °C for 45 min. The final concentrations of BAY-293 compound were 10, 3.33, 1.11, 0.37, 0.12, 0.04, 0.014, 0.0046, 0.0015, 0.0005, 0.00017, and 0 µM. The final concentrations of the test compound were 10, 3.33, 1.11, 0.37, 0.12, 0.04, 0.014, 0.0046, 0.0015, 0.0005, 0.00017, and 0 µM. The final concentrations of DMSO were all 0.5%. 10 µL of a 2X assay reagent solution was transferred to the 384-well reaction plate. The solution was centrifuged at 1000 rpm/min for 1 min and incubated at 4 °C for 180 min. An Envision multifunctional microplate reader was used to read at an excitation wavelength of […] and an emission wavelength of 615 nm. The signal intensity of 665/615 ratio was used to characterize the degree of enzyme activity. Data processing: compound IC50 was fitted by Graphpad Prism 8 nonlinear regression equation: Negative control: DMSO
IC50 (half maximal inhibitory concentration) of the compound was obtained using the following nonlinear fitting formula: Y = Bottom + (Top−Bottom)/(1+10^(∧)((LogIC50−X)*HillSlope)) [formula] • X: log value of the concentration of the test compound • Y: inhibition percentage
Bottom is the minimum inhibition percentage, Top is the maximum inhibition percentage, and HillSlope is the Hill slope.
Usually IC50 stands for the midpoint of a concentration-inhibition curve. `[2H][C@](C)(Nc1nc(C)nc2c(N3CCOCC3)c(=O)n(C3(CF)CC3)cc12)c1cccc(C(F)F)c1F` [Example 55, (R)-4-((1-(3-(difluoromethyl)-2-fluorophenyl)ethyl-1-d)amino)-6-(1-(fluoromethyl)cyclopropyl)-2-methyl-8-morpholinylpyrido[4,3-d]pyrimidine-7(6H)-one] came in with an IC50 of 6.3 nM.

Compound `Cc1nc(N[C@H](C)c2cccc(C(F)F)c2F)c2cn(C3(CF)CC3)c(=O)c(N3CCOC[C@@H]3C)c2n1` [Example 40, 4-(((R)-1-(3-(difluoromethyl)-2-fluorophenyl)ethyl)amino)-6-(1-(fluoromethyl)cyclopropyl)-2-methyl-8-((S)-3-methylmorpholine)pyrido[4,3-d]pyrimidine-7(6H)-one] returned an IC50 of 3.84 nM.

Compound `Cc1nc(N[C@H](C)c2cccc(C(F)F)c2F)c2cn(C3(CF)CC3)c(=O)c(N3CCOCC3)c2n1` [Example 34, (R)-4-((1-(3-(difluoromethyl)-2-fluorophenyl)ethyl)amino)-6-(1-(fluoromethyl)cyclopropyl)-2-methyl-8-morpholinylpyrido[4,3-d]pyrimidine-7(6H)-one] had an IC50 of 6.55 nM. In turn, `COc1c(=O)n(N2CCOCC2)cc2c(N[C@H](C)c3cccc(C(F)F)c3F)nc(C)nc12` [Example 20, (R)-4-((1-(3-(difluoromethyl)-2-fluorophenyl)ethyl)amino)-8-methoxy-2-methyl-6-morpholinepyrido[4,3-d]pyrimidine-7(6H)-one] showed an IC50 of 7.46 nM. For `[2H]C([2H])([2H])Oc1c(=O)n(C2(CF)CC2)cc2c(N[C@H](C)c3cccc(C(F)F)c3F)nc(C)nc12` [Example 23, (R)-4-((1-(3-(difluoromethyl)-2-fluorophenyl)ethyl)amino)-6-(1-(fluoromethyl)cyclopropyl)-8-(methoxy-d3)-2-methylpyrido[4,3-d]pyrimidine-7(6H)-one] the value was 4.17 nM.
